In assay [1] the test system is MOLM-14 D835Y cells, FLT3 ITD and FLT3 D835Y. Briefly: Cell proliferation assay (CellTiter-Glo), MOLM-14 D835Y. The format is cell-based. Conditions: Homo sapiens, 72 h, 3d-Growth, GMean. The method, boiled down:
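MOLM-14 AML cells (endogenous FLT3 ITD, AC220-selected D835Y or F691L variants) or murine Ba/F3 expressing full-length FLT3 ITD/D835Y, without IL-3 for FLT3 dependence, 1×10^4 cells/well. Eight-point 1:3 series from 1 μM final, 0.2% DMSO, 3 days at 37 °C. CellTiter-Glo luminescence (ATP) gave IC50.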
(In ATP-based viability assays light output follows the ATP content of the culture.)

The test system of assay [2] is MOLM-14 F691L cells, FLT3 ITD and FLT3 F691L. Briefly: Cell proliferation assay (CellTiter-Glo), MOLM-14 F691L. The format is cell-based. As to conditions: Homo sapiens, 72 h, 3d-Growth, GMean. An excerpt:
The FLT3 inhibitors may be assessed using the MOLM-14, Acute Myeloid Leukemia cell line that endogenously expresses FLT3 ITD or derivatives of the human FLT3 AML cell line which acquired the D835Y (activation loop) of F691L (gatekeeper) mutation after selection in escalating doses of the FLT3 Inhibitor AC220. FLT3 inhibitors may also be assessed using cells that are engineered to express mutant FLT3. For engineered cells, murine Ba/F3 cells were transfected with full-length FLT3 ITD/D835Y mutations. The parental BA/F3 cells are dependent upon Interleukin-3 (IL-3) for survival, and introduction of the FLT3 constructs rendered these cells dependent upon FLT3 kinase activity when cultured in the absences of IL-3. Engineered BA/F3 cell growth assays can be performed in either the […] of IL-3, to assess the compound inhibition of FLT3 or to detect the presence of off-target activity, respectively. Inhibitors of FLT3 kinase activity reduce or eliminate the FLT3 oncogenic signaling, resulting in reduced cell proliferation. This inhibition is measured as a function of compound concentration to asses IC50 values.
Cell lines used in proliferation assays are as follows in Table 3:
Cells were seeded at 1×10^4 cells per well of a 96 well cell culture plate in 50 μl of cell culture medium. Compounds were dissolved in DMSO, typically at a concentration of 0.5 mM and were serially diluted 1:3 for a total of eight points and added to the cells to final concentrations of […], 0.0041, 0.0014 and 0.00046 μM in 100 μl cell culture medium (final concentration 0.2% DMSO). […] The cells were incubated at 37° C., 5% CO2 for three days. CellTiter-Glo Buffer (Promega Cell Viability Assay catalog #G7573) and substrate were equilibrated to room temperature, and enzyme/substrate Recombinant Firefly Luciferase/Beetle Luciferin was reconstituted. The cell plates were equilibrated to room temperature for 30 minutes, then lysed by addition of an equivalent volume of the Celltiter-Glo Reagent. The plate was mixed for 10 minutes on a plate shaker to lyse the cells. The plates were read on a Tecan M1000 using Luminescence protocol modified to read 0.1 s per well. The luminescence reading assesses the ATP content, which correlates directly with cell number such that the reading as a function of compound concentration was used to determine the IC50 value.

SMILES strings stand for the structures.

The term IC50 denotes the concentration at which inhibition is half-maximal. Read a low IC50 as greater potency in that assay.

Consider `CC(C)(C#N)CNC(=O)c1cccc(-c2cnc3[nH]c(-c4ccccc4)c(Cl)c3c2)n1` [Compound P-0138, 6-(3-chloro-2-phenyl-1H-pyrrolo[2,3-b]pyridin-5-yl)-N-(2-cyano-2-methyl-propyl)pyridine-2-carboxamide], for which the IC50 in assay [1] and in assay [2] was 0.0001 to 10 µM throughout.

In the case of `CC(C)(C#N)NC(=O)c1cccc(-c2cnc3[nH]c(-c4ccc(F)cc4)cc3c2)n1` [Compound P-0145, N-(1-cyano-1-methyl-ethyl)-6-[2-(4-fluorophenyl)-1H-pyrrolo[2,3-b]pyridin-5-yl]pyridine-2-carboxamide], the IC50 in assay [1] and in assay [2] was 0.0001 to 10 µM each time.

For `CC(C)(C#N)NC(=O)c1cccc(-c2cnc3[nH]c(-c4ccccc4)cc3c2)n1` [Compound P-0118, N-(1-cyano-1-methyl-ethyl)-6-(2-phenyl-1H-pyrrolo[2,3-b]pyridin-5-yl)pyridine-2-carboxamide], the IC50 in assay [1] and in assay [2] was 0.0001 to 10 µM each time.

With `CC(C)(C#N)NC(=O)c1cccc(-c2cnc3[nH]c(C4=CCN(S(=O)(=O)C5CC5)CC4)cc3c2)n1` [Compound P-0188, N-(1-cyano-1-methyl-ethyl)-6-[2-(1-cyclopropylsulfonyl-3,6-dihydro-2H-pyridin-4-yl)-1H-pyrrolo[2,3-b]pyridin-5-yl]pyridine-2-carboxamide], the IC50 in assay [1] and in assay [2] was 0.0001 to 10 µM throughout.

With `CC(C)(C#N)NC(=O)c1cccc(-c2cnc3[nH]c(C4=CCSCC4)cc3c2)n1` [Compound P-0180, N-(1-cyano-1-methyl-ethyl)-6-[2-(3,6-dihydro-2H-thiopyran-4-yl)-1H-pyrrolo[2,3-b]pyridin-5-yl]pyridine-2-carboxamide], the IC50 in assay [1] and in assay [2] was 0.0001 to 10 µM each time.

In the case of `N#C[C@@H]1CCN(C(=O)c2cccc(-c3cnc4[nH]c(-c5ccccc5)cc4c3)n2)C1` [Compound P-0122, (3R)-1-[6-(2-phenyl-1H-pyrrolo[2,3-b]pyridin-5-yl)pyridine-2-carbonyl]pyrrolidine-3-carbonitrile], the IC50 in assay [1] and in assay [2] was 0.0001 to 10 µM throughout.

In the case of `CC(C)(C#N)CNC(=O)c1cccc(-c2cnc3[nH]c(-c4cnn(CC(F)(F)F)c4)cc3c2)n1` [Compound P-0113, N-(2-cyano-2-methyl-propyl)-6-[2-[1-(2,2,2-trifluoroethyl)pyrazol-4-yl]-1H-pyrrolo[2,3-b]pyridin-5-yl]pyridine-2-carboxamide], the IC50 in assay [1] and in assay [2] was 0.0001 to 10 µM each time.

As to `CC(C)(C#N)NC(=O)c1cccc(-c2cnc3[nH]c(-c4cnc(C5CC5)nc4)cc3c2)n1` [Compound P-0166, N-(1-cyano-1-methyl-ethyl)-6-[2-(2-cyclopropylpyrimidin-5-yl)-1H-pyrrolo[2,3-b]pyridin-5-yl]pyridine-2-carboxamide], the concentration for half-maximal inhibition (IC50) in assay [1] and in assay [2] was 0.0001 to 10 µM each time.

As to `O=C(NC1(C(F)(F)F)CC1)c1cccc(-c2cnc3[nH]c(-c4ccccc4)cc3c2)n1` [Compound P-0156, 6-(2-phenyl-1H-pyrrolo[2,3-b]pyridin-5-yl)-N-[1-(trifluoromethyl)cyclopropyl]pyridine-2-carboxamide], the IC50 in assay [1] and in assay [2] was 0.0001 to 10 µM in each case.

For `CC(C)(C#N)NC(=O)c1cccc(-c2cnc3[nH]c(C4=CCNCC4)cc3c2)n1` [Compound P-0182, N-(1-cyano-1-methyl-ethyl)-6-[2-(1,2,3,6-tetrahydropyridin-4-yl)-1H-pyrrolo[2,3-b]pyridin-5-yl]pyridine-2-carboxamide], the IC50 in assay [1] and in assay [2] was 0.0001 to 10 µM throughout.

Turning to `N#CC1CCN(C(=O)c2cccc(-c3cnc4[nH]c(-c5cnn(C(F)F)c5)cc4c3)n2)C1` (centres unmarked) [Compound P-0134, 1-[6-[2-[1-(difluoromethyl)pyrazol-4-yl]-1H-pyrrolo[2,3-b]pyridin-5-yl]pyridine-2-carbonyl]pyrrolidine-3-carbonitrile], the IC50 in assay [1] and in assay [2] was 0.0001 to 10 µM each time.

In the case of `CC(C)(C#N)NC(=O)c1cccc(-c2cnc3[nH]c(C4=CCN(C(=O)C5CC5)CC4)cc3c2)n1` [Compound P-0181, N-(1-cyano-1-methyl-ethyl)-6-[2-[1-(cyclopropanecarbonyl)-3,6-dihydro-2H-pyridin-4-yl]-1H-pyrrolo[2,3-b]pyridin-5-yl]pyridine-2-carboxamide], the IC50 in assay [1] and in assay [2] was 0.0001 to 10 µM in each case.

Turning to `CC(C)(C#N)NC(=O)c1cccc(-c2cnc3[nH]c(-c4cnn(C(F)F)c4)cc3c2)n1` [Compound P-0164, N-(2-cyanopropan-2-yl)-6-(2-(1-(difluoromethyl)-1H-pyrazol-4-yl)-1H-pyrrolo[2,3-b]pyridin-5-yl)picolinamide], the IC50 in assay [1] and in assay [2] was 0.0001 to 10 µM throughout.

In the case of `Cc1nc(C(C)C)sc1-c1cc2cc(-c3cccc(C(=O)NC(C)(C)C#N)n3)cnc2[nH]1` [Compound P-0169, N-(1-cyano-1-methyl-ethyl)-6-[2-(2-isopropyl-4-methyl-thiazol-5-yl)-1H-pyrrolo[2,3-b]pyridin-5-yl]pyridine-2-carboxamide], the half-inhibitory concentration (IC50) in assay [1] and in assay [2] was 0.0001 to 10 µM throughout.

With `CC(C)(C#N)CNC(=O)c1cccc(-c2cnc3[nH]c(C4=CCS(=O)(=O)CC4)cc3c2)n1` [Compound P-0160, N-(2-cyano-2-methyl-propyl)-6-[2-(1,1-dioxo-3,6-dihydro-2H-thiopyran-4-yl)-1H-pyrrolo[2,3-b]pyridin-5-yl]pyridine-2-carboxamide], the IC50 in assay [1] and in assay [2] was 0.0001 to 10 µM each time.

For `CC(C)(C#N)CNC(=O)c1cccc(-c2cnc3[nH]c(C4=CCN(C(=O)C5CC5)C4)cc3c2)n1` [Compound P-0141, N-(2-cyano-2-methyl-propyl)-6-[2-[1-(cyclopropanecarbonyl)-2,5-dihydropyrrol-3-yl]-1H-pyrrolo[2,3-b]pyridin-5-yl]pyridine-2-carboxamide], the IC50 in assay [1] and in assay [2] was 0.0001 to 10 µM throughout.

Take `COCCn1cc(-c2cc3cc(-c4cccc(C(=O)NC(C)(C)C#N)n4)cnc3[nH]2)cn1` [Compound P-0172, N-(1-cyano-1-methyl-ethyl)-6-[2-[1-(2-methoxyethyl)pyrazol-4-yl]-1H-pyrrolo[2,3-b]pyridin-5-yl]pyridine-2-carboxamide]: the IC50 in assay [1] and in assay [2] was 0.0001 to 10 µM each time.

Regarding `N#CC1(NC(=O)c2cccc(-c3cnc4[nH]c(-c5ccccc5)cc4c3)n2)CCC1` [Compound P-0114, N-(1-cyanocyclobutyl)-6-(2-phenyl-1H-pyrrolo[2,3-b]pyridin-5-yl)pyridine-2-carboxamide], the IC50 in assay [1] and in assay [2] was 0.0001 to 10 µM throughout.

Regarding `CC(C)(C#N)NC(=O)c1cccc(-c2cnc3[nH]c(C#Cc4ccccc4)cc3c2)n1` [Compound P-0176, N-(1-cyano-1-methyl-ethyl)-6-[2-(2-phenylethynyl)-1H-pyrrolo[2,3-b]pyridin-5-yl]pyridine-2-carboxamide], the IC50 in assay [1] and in assay [2] was 0.0001 to 10 µM in each case.

For `CC1(C)CC=C(c2cc3cc(-c4cccc(C(=O)N5CCC(C#N)C5)n4)cnc3[nH]2)CC1` (centres unmarked) [Compound P-0131, 1-[6-[2-(4,4-dimethylcyclohexen-1-yl)-1H-pyrrolo[2,3-b]pyridin-5-yl]pyridine-2-carbonyl]pyrrolidine-3-carbonitrile], the concentration for half-maximal inhibition (IC50) in assay [1] and in assay [2] was 0.0001 to 10 µM each time.

Consider `N#CC1CCN(C(=O)c2cccc(-c3cnc4[nH]c(C5=CCOCC5)cc4c3)n2)C1` (centres unmarked) [Compound P-0132, 1-[6-[2-(3,6-dihydro-2H-pyran-4-yl)-1H-pyrrolo[2,3-b]pyridin-5-yl]pyridine-2-carbonyl]pyrrolidine-3-carbonitrile], for which the IC50 in assay [1] and in assay [2] was 0.0001 to 10 µM each time.

In the case of `CC(C)(C#N)NC(=O)c1cccc(-c2cnc3[nH]c(-c4cnn(Cc5ccccc5)c4)cc3c2)n1` [Compound P-0171, 6-[2-(1-benzylpyrazol-4-yl)-1H-pyrrolo[2,3-b]pyridin-5-yl]-N-(1-cyano-1-methyl-ethyl)pyridine-2-carboxamide], the IC50 in assay [1] and in assay [2] was 0.0001 to 10 µM in each case.

Source of the values: US9938273B2 (Plexxikon Inc., priority 2015, dated 2018).
